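Step 1: Grow cells in 96-well plates. Step 2: Expose to compound for 48 hours at 5 concentrations. Step 3: Interpolate endpoints linearly; if unreached, use highest concentration. GI50 marks 50% less growth.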 Activity calls are given as the source filed them. No stated cut-off is given here; in the data, active = GI50 up to about 1.1 µM and inactive = higher.
Legend:
Test in all cases: DTP human tumour cell line panel, 48 h
786-0 = tested on: 786-0
A549 = tested on: A549
CCRF-CEM = tested on: CCRF-CEM
HOP-62 = tested on: HOP-62
HOP-92 = tested on: HOP-92
HT-29 = tested on: HT-29
MDA-MB-435 = tested on: MDA-MB-435
MOLT-4 = tested on: MOLT-4
NCI-H226 = tested on: NCI-H226
NCI-H460 = tested on: NCI-H460
OVCAR-3 = tested on: OVCAR-3
OVCAR-5 = tested on: OVCAR-5
RPMI-8226 = tested on: RPMI-8226
SK-MEL-28 = tested on: SK-MEL-28
SW-620 = tested on: SW-620
UACC-257 = tested on: UACC-257
UO-31 = tested on: UO-31
RXF 393 = tested on: RXF 393
SR = tested on: SR

Measured: GI50

COc1cc2nc(-c3cccs3)nc(N3CCN(c4ccccc4C(F)(F)F)CC3)c2cc1OC
inactive: 786-0 > 100 µM | A549 > 100 µM | CCRF-CEM 7.23 µM | HOP-62 > 100 µM | HOP-92 21.4 µM | HT-29 > 100 µM | MDA-MB-435 52.8 µM | MOLT-4 16.7 µM | NCI-H226 > 100 µM | NCI-H460 > 100 µM | OVCAR-3 21.5 µM | OVCAR-5 > 100 µM | RPMI-8226 51.3 µM | SK-MEL-28 > 100 µM | SW-620 > 100 µM | UACC-257 > 100 µM | UO-31 > 100 µM

CC(=O)O[C@H]1CC[C@@]2(C)C(=CC[C@H]3[C@@H]4C/C(=C\c5ccc(N(C)C)cc5)[C@H](OC(C)=O)[C@@]4(C)CC[C@@H]32)C1
inactive: 786-0 4.36 µM | A549 5.92 µM | HOP-62 14.1 µM | HT-29 8.43 µM | MOLT-4 5.98 µM | NCI-H226 12.1 µM | NCI-H460 5.19 µM | OVCAR-3 8.93 µM | OVCAR-5 19.6 µM | RPMI-8226 4.89 µM | RXF 393 9.91 µM | SK-MEL-28 12.7 µM | SR 4.1 µM | SW-620 14.9 µM | UACC-257 6.14 µM | UO-31 11.3 µM

COC(=O)CNC(=O)CSc1nnc(COc2ccc(Cl)cc2)n1-c1ccccc1
inactive: 786-0 16.1 µM | A549 > 100 µM | CCRF-CEM 57.4 µM | HOP-62 > 100 µM | HOP-92 31.8 µM | HT-29 40.6 µM | MDA-MB-435 20.8 µM | MOLT-4 64.1 µM | NCI-H226 47.4 µM | NCI-H460 56.8 µM | OVCAR-3 71.8 µM | OVCAR-5 56.1 µM | RXF 393 23.1 µM | SK-MEL-28 26.6 µM | SW-620 43.6 µM | UACC-257 29.9 µM | UO-31 27.4 µM

Nc1c(F)c(F)c2c(c1F)N(CCCCCl)c1ccccc1S2
inactive: 786-0 > 100 µM | A549 > 100 µM | CCRF-CEM > 100 µM | HOP-62 > 100 µM | HOP-92 > 100 µM | HT-29 > 100 µM | MOLT-4 > 100 µM | NCI-H226 > 100 µM | NCI-H460 > 100 µM | OVCAR-3 > 100 µM | OVCAR-5 > 100 µM | RPMI-8226 > 100 µM | RXF 393 > 100 µM | SK-MEL-28 > 100 µM | SR > 100 µM | SW-620 > 100 µM | UACC-257 > 100 µM | UO-31 > 100 µM

CCOC(=O)c1ccc(-n2c(SCC)nc3sc(C)c(C)c3c2=O)cc1
inactive: 786-0 85.9 µM | A549 > 100 µM | CCRF-CEM > 100 µM | HOP-62 > 100 µM | HOP-92 50.7 µM | HT-29 > 100 µM | MOLT-4 > 10 µM | NCI-H226 > 100 µM | NCI-H460 > 100 µM | OVCAR-3 40.6 µM | OVCAR-5 > 100 µM | RPMI-8226 > 100 µM | RXF 393 94.8 µM | SK-MEL-28 > 100 µM | SR > 100 µM | SW-620 > 100 µM | UACC-257 > 100 µM | UO-31 > 100 µM

NC(=O)Nc1n[nH]c(-c2ccccc2)n1
inactive: 786-0 > 100 µM | A549 > 100 µM | CCRF-CEM > 100 µM | HOP-62 54.1 µM | HT-29 > 100 µM | MDA-MB-435 > 100 µM | MOLT-4 > 100 µM | NCI-H226 > 100 µM | NCI-H460 > 100 µM | OVCAR-3 > 100 µM | OVCAR-5 > 100 µM | RPMI-8226 > 100 µM | RXF 393 > 100 µM | SK-MEL-28 > 100 µM | SW-620 > 100 µM | UACC-257 > 100 µM | UO-31 > 100 µM

Cc1ccc(N(C(=O)Nc2ccccc2)C2=NCC(C)S2)cc1C (stereo not given)
inactive: 786-0 20.4 µM | A549 29 µM | CCRF-CEM 19.6 µM | HOP-62 53.3 µM | HOP-92 22.5 µM | HT-29 18.2 µM | MOLT-4 > 10 µM | NCI-H460 18 µM | OVCAR-3 17.3 µM | OVCAR-5 23.1 µM | RPMI-8226 20 µM | SK-MEL-28 17.5 µM | SR 23.7 µM | SW-620 24.7 µM | UACC-257 > 10 µM | UO-31 18.5 µM

CO/C(N)=C(C#N)/N=C/c1ccsc1
inactive: 786-0 23.9 µM | A549 > 100 µM | CCRF-CEM 24 µM | HOP-62 > 100 µM | HOP-92 34.1 µM | HT-29 40.7 µM | MDA-MB-435 36.2 µM | MOLT-4 47.6 µM | NCI-H226 > 100 µM | NCI-H460 > 100 µM | OVCAR-3 30.6 µM | OVCAR-5 > 100 µM | RXF 393 31.8 µM | SK-MEL-28 85.5 µM | SW-620 53.2 µM | UACC-257 41.9 µM | UO-31 > 100 µM

OC12c3ccccc3C1(N1CCOCC1)CCCCC21OCCCO1 (stereo not given)
inactive: 786-0 > 100 µM | A549 > 100 µM | CCRF-CEM > 100 µM | HOP-62 > 100 µM | HT-29 > 100 µM | MOLT-4 > 100 µM | NCI-H226 > 100 µM | NCI-H460 > 100 µM | OVCAR-3 > 100 µM | OVCAR-5 > 100 µM | RPMI-8226 > 100 µM | RXF 393 > 100 µM | SK-MEL-28 > 100 µM | UACC-257 > 100 µM

O=P1(c2ccccc2)CCCCC1
inactive: 786-0 > 100 µM | A549 > 100 µM | CCRF-CEM > 100 µM | HOP-62 > 100 µM | HT-29 > 100 µM | MOLT-4 > 100 µM | NCI-H226 > 100 µM | NCI-H460 > 100 µM | OVCAR-3 > 100 µM | OVCAR-5 > 100 µM | RPMI-8226 > 100 µM | RXF 393 > 100 µM | SK-MEL-28 > 100 µM | SR > 100 µM | SW-620 > 10 µM | UACC-257 > 100 µM | UO-31 > 100 µM

CN(Cc1cnc2nc(N)nc(N)c2n1)c1ccc(C(=O)NCS(=O)(=O)O)cc1
inactive: 786-0 59.3 µM | A549 95.7 µM | HOP-62 > 100 µM | HOP-92 1.34 µM | HT-29 > 100 µM | MDA-MB-435 91.2 µM | MOLT-4 68.2 µM | NCI-H226 > 100 µM | NCI-H460 92.7 µM | OVCAR-3 > 100 µM | OVCAR-5 > 100 µM | RPMI-8226 > 100 µM | SK-MEL-28 > 100 µM | SW-620 78.5 µM | UACC-257 > 100 µM | UO-31 > 100 µM

CN1CC2CC(C1)c1cccc(=O)n1C2 (stereo not given)
inactive: 786-0 > 100 µM | A549 > 100 µM | HOP-62 > 100 µM | HOP-92 > 100 µM | HT-29 > 100 µM | MDA-MB-435 > 100 µM | NCI-H460 > 100 µM | OVCAR-3 > 100 µM | OVCAR-5 > 100 µM | RXF 393 > 100 µM | UACC-257 > 100 µM | UO-31 > 100 µM
